Data taken from patent EP3046573B1, “AMYLIN ANALOGUES” (Zealand Pharma A/S, priority 2013, dated 2015).
Read-outs that look alike come from different tables or passages of the source. Numbered stars: 1 amine (or outer) side, 2 acyl side, 3 side chain; on linkers, the order of the positions; unused ones are H or OH. Bridge positions count the residues as written; N and C are the ends. Square brackets hold non-standard residues; d marks the D form. Peptide text beside a SMILES is read from it. * marks the point of attachment. C20 diacid = O=C(O)CCCCCCCCCCCCCCCCCCC(=O)*; Pro(4R-NH2) = N[C@H]1CN[C@H](C(=O)O)C1; γGlu = O=C(O)[C@H](CCC(=O)[*:2])N[*:1]; Hyp = O=C(O)[C@@H]1C[C@@H](O)CN1; NMeI = CC[C@H](C)[C@H](NC)C(=O)O; Aze = O=C(O)[C@@H]1CCN1; Sar = CNCC(=O)O

What was measured:
[1] = Assessment of physical stability: fibril formation detected with Thioflavin T (ThT), lag-time; format: physicochemical; details: 1 mg/ml peptide, 40 µM ThT, FND = Fibrillation not detected; for Fibrillation lag time (hours) pH 4.0 (Ac): 50 mM acetate buffer pH 4.0, 96 hours at 40°C; for Fibrillation lag time (hours) pH 7.0 (His): 50 mM histidine buffer pH 7.0, 96 hours at 40°C; for Fibrillation lag time (hours) pH 7.0 (Ph): 50 mM phosphate buffer pH 7.0, 96 hours at 40°C
Outline: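 Test peptide at 1 mg/ml with 40 µM ThT in 50 mM phosphate (pH 7.0), 50 mM histidine (pH 7.0) or 50 mM acetate (pH 4.0), in triplicate, 40° C. for 96 h. Fluorescence read every 10 min after 300 s agitation. Lag-time (h) taken as intersection of linear fits to initial stable and growth phases.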

[2] = molecular target: T1, human amylin receptor 3 (hAMYR3) consisting of hCTR2 co-expressed with human Receptor Activity Modifying Protein 3 (hRAMP3) (Homo sapiens, UniProt O60896+P30988); test: hAMYR3 assay: induction of cAMP (AlphaScreen cAMP Assay kit) in COS7 cells expressing hAMYR3; format: cell-based
T1 construct: expressed in transfected cells
T1 sequence (P30988 25-474): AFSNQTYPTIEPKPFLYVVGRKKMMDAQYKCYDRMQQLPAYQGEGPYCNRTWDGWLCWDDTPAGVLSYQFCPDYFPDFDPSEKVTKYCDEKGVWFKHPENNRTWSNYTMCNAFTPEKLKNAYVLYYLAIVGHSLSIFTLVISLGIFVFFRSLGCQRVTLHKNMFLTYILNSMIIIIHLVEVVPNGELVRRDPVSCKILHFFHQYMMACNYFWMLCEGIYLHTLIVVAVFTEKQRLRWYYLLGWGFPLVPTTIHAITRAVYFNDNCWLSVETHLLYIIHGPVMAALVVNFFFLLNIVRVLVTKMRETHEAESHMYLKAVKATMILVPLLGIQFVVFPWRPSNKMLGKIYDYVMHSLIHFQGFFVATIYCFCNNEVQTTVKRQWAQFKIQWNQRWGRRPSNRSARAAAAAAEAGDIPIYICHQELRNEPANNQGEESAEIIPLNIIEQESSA
T1 sequence (O60896 24-148 partner): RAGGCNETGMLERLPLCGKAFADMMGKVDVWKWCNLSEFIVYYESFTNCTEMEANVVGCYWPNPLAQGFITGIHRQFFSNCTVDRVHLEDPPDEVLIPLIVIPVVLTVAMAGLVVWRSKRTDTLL
Outline: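 Stable COS7 clone co-expressing hCTR2 and hRAMP3, stimulated 15 min at 37° C with increasing peptide in Tyrode buffer pH 7.4 with 100 µM IBMX and 0.1% casein. cAMP measured by AlphaScreen after lysis; EC50 and % efficacy versus pramlintide from 4PL fit.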

[3] = molecular target: T2, human calcitonin receptor (hCTR2) (Homo sapiens, UniProt P30988); test: hCTR2 assay: induction of cAMP (AlphaScreen cAMP Assay kit) in COS7 cells expressing hCTR2; format: cell-based
T2 construct: expressed in transfected cells
T2 sequence (P30988 25-474): T1 sequence (P30988 25-474)
Outline: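 COS7 stable hCTR2 clone (RAMP-free); peptide dose-response 15 min 37° C in Tyrode pH 7.4 + 100 µM IBMX + 0.1% casein; lysis 10 min RT; AlphaScreen cAMP; 4PL fit.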

[4] = cAMP induction in COS7 cells expressing hAMYR3, average of a minimum of 3 determinations, read-out: hAMY R3 EC50
[5] = cAMP induction in COS7 cells expressing hCTR2, average of a minimum of 3 determinations, read-out: hCTR2 EC50

SMILES | Fibrillation lag time (hours) pH 4.0 (Ac) [1] | Fibrillation lag time (hours) pH 7.0 (His) [1] | Fibrillation lag time (hours) pH 7.0 (Ph) [1] | EC50 [2, 4] | EC50 [3, 5] | EC50 [2] | EC50 [3]
CC[C@H](C)[C@@H](C(=O)N[C@@H](CC(C)C)C(=O)N[C@@H](CO)C(=O)N[C@@H](CO)C(=O)N[C@H](C(=O)N[C@@H](CCC(=O)O)C(=O)N[C@H](C(=O)NCC(=O)N[C@@H](CO)C(=O)N[C@@H](CCC(=O)O)C(=O)N[C@H](C(=O)N1C[C@H](O)C[C@H]1C(N)=O)[C@@H](C)O)C(C)C)[C@@H](C)O)N(C)C(=O)[C@H](C)NC(=O)CN(C)C(=O)[C@H](Cc1ccccc1)NC(=O)[C@H](CO)NC(=O)[C@H](CO)NC(=O)[C@H](CCCNC(=N)N)NC(=O)[C@H](Cc1c[nH]cn1)NC(=O)[C@H](CC(C)C)NC(=O)[C@H](Cc1ccccc1)NC(=O)[C@H](CCC(=O)O)NC(=O)[C@H](C)NC(=O)[C@H](CC(C)C)NC(=O)[C@H](CCCNC(=N)N)NC(=O)[C@H](CCC(=O)O)NC(=O)[C@@H](NC(=O)[C@H](C)NC(=O)[C@@H]1CSSC[C@H](NC(=O)[C@H](CCCNC(=N)N)NC(=O)CC[C@H](NC(=O)CCCCCCCCCCCCCCCCCCC(=O)O)C(=O)O)C(=O)NCC(=O)N[C@@H]([C@@H](C)O)C(=O)N[C@@H](C)C(=O)N[C@@H]([C@@H](C)O)C(=O)N1)[C@@H](C)O [Compound 166, [19CD]-isoGlu-RC()GTATC()ATERLAEFLHRSSF-Gly(Me)-A-Ile(Me)-LSSTEVGSET-Hyp-NH2] ({C20 diacid-γGlu}-RCGTATCATERLAEFLHRSSF[Sar]A[NMeI]LSSTEVGSET[Hyp]-NH2; disulfide 2-7) | FND | FND | FND | 0.11 nM | 0.074 nM |  | 
CC[C@H](C)[C@@H](C(=O)N[C@@H](CC(C)C)C(=O)N[C@@H](CO)C(=O)N[C@@H](CO)C(=O)N[C@H](C(=O)N[C@@H](CCC(=O)O)C(=O)N[C@H](C(=O)NCC(=O)N[C@@H](CO)C(=O)N[C@@H](CCC(=O)O)C(=O)N[C@H](C(=O)N1CCC[C@H]1C(N)=O)[C@@H](C)O)C(C)C)[C@@H](C)O)N(C)C(=O)[C@H](C)NC(=O)CN(C)C(=O)[C@H](Cc1ccccc1)NC(=O)[C@H](CO)NC(=O)[C@H](CO)NC(=O)[C@H](CO)NC(=O)[C@H](CO)NC(=O)[C@H](CCCNC(=N)N)NC(=O)[C@H](Cc1c[nH]cn1)NC(=O)[C@H](CC(C)C)NC(=O)[C@H](Cc1ccccc1)NC(=O)[C@H](CCC(=O)O)NC(=O)[C@H](C)NC(=O)[C@H](CC(C)C)NC(=O)[C@H](CCCNC(=N)N)NC(=O)[C@H](CC(=O)O)NC(=O)[C@@H](NC(=O)[C@H](C)NC(=O)[C@@H]1CSSC[C@H](NC(=O)[C@H](CCCNC(=N)N)NC(=O)CC[C@H](NC(=O)CCCCCCCCCCCCCCCCCCC(=O)O)C(=O)O)C(=O)N[C@@H](CC(N)=O)C(=O)N[C@@H]([C@@H](C)O)C(=O)N[C@@H](C)C(=O)N[C@@H]([C@@H](C)O)C(=O)N1)[C@@H](C)O [Compound 120, [19CD]-isoGlu-RC()NTATC()ATDRLAEFLHRSSSSF-Gly(Me)-A-Ile(Me)-LSSTEVGSETP-NH2] ({C20 diacid-γGlu}-RCNTATCATDRLAEFLHRSSSSF[Sar]A[NMeI]LSSTEVGSETP-NH2; disulfide 2-7) | FND | FND | FND |  | 0.043 nM | 0.15 nM | 
CC[C@H](C)[C@@H](C(=O)N[C@@H](CC(C)C)C(=O)N[C@@H](CO)C(=O)N[C@@H](CO)C(=O)N[C@H](C(=O)N[C@@H](CC(N)=O)C(=O)N[C@H](C(=O)NCC(=O)N[C@@H](CO)C(=O)N[C@@H](CC(N)=O)C(=O)N[C@H](C(=O)N1CC[C@H]1C(N)=O)[C@@H](C)O)C(C)C)[C@@H](C)O)N(C)C(=O)[C@H](C)NC(=O)CN(C)C(=O)[C@H](Cc1ccccc1)NC(=O)[C@H](CC(N)=O)NC(=O)[C@H](CC(N)=O)NC(=O)[C@H](CO)NC(=O)[C@H](CO)NC(=O)[C@H](CCCNC(=N)N)NC(=O)[C@H](Cc1c[nH]cn1)NC(=O)[C@H](CC(C)C)NC(=O)[C@H](Cc1ccccc1)NC(=O)[C@H](CCC(=O)O)NC(=O)[C@H](C)NC(=O)[C@H](CC(C)C)NC(=O)[C@H](CCCNC(=N)N)NC(=O)[C@H](CCC(N)=O)NC(=O)[C@@H](NC(=O)[C@H](C)NC(=O)[C@@H]1CSSC[C@H](NC(=O)[C@H](CCCNC(=N)N)NC(=O)CC[C@H](NC(=O)CCCCCCCCCCCCCCCCCCC(=O)O)C(=O)O)C(=O)N[C@@H](CC(N)=O)C(=O)N[C@@H]([C@@H](C)O)C(=O)N[C@@H](C)C(=O)N[C@@H]([C@@H](C)O)C(=O)N1)[C@@H](C)O [Compound 107, [19CD]-isoGlu-RC()NTATC()ATQRLAEFLHRSSNNF-Gly(Me)-A-Ile(Me)-LSSTNVGSNT-Aze-NH2] ({C20 diacid-γGlu}-RCNTATCATQRLAEFLHRSSNNF[Sar]A[NMeI]LSSTNVGSNT[Aze]-NH2; disulfide 2-7) | FND | FND | 16 hours |  |  | 0.52 nM | 0.18 nM
CC[C@H](C)[C@@H](C(=O)N[C@@H](CC(C)C)C(=O)N[C@@H](CO)C(=O)N[C@@H](CO)C(=O)N[C@H](C(=O)N[C@@H](CC(N)=O)C(=O)N[C@H](C(=O)NCC(=O)N[C@@H](CO)C(=O)N[C@@H](CC(N)=O)C(=O)N[C@H](C(=O)N1C[C@H](N)C[C@H]1C(N)=O)[C@@H](C)O)C(C)C)[C@@H](C)O)N(C)C(=O)[C@H](C)NC(=O)CN(C)C(=O)[C@H](Cc1ccccc1)NC(=O)[C@H](CC(N)=O)NC(=O)[C@H](CC(N)=O)NC(=O)[C@H](CO)NC(=O)[C@H](CO)NC(=O)[C@H](CCCNC(=N)N)NC(=O)[C@H](Cc1c[nH]cn1)NC(=O)[C@H](CC(C)C)NC(=O)[C@H](Cc1ccccc1)NC(=O)[C@H](CCC(=O)O)NC(=O)[C@H](C)NC(=O)[C@H](CC(C)C)NC(=O)[C@H](CCCNC(=N)N)NC(=O)[C@H](CCC(N)=O)NC(=O)[C@@H](NC(=O)[C@H](C)NC(=O)[C@@H]1CSSC[C@H](NC(=O)[C@H](CCCNC(=N)N)NC(=O)CC[C@H](NC(=O)CCCCCCCCCCCCCCCCCCC(=O)O)C(=O)O)C(=O)N[C@@H](CC(N)=O)C(=O)N[C@@H]([C@@H](C)O)C(=O)N[C@@H](C)C(=O)N[C@@H]([C@@H](C)O)C(=O)N1)[C@@H](C)O [Compound 110, [19CD]-isoGlu-RC()NTATC()ATQRLAEFLHRSSNNF-Gly(Me)-A-Ile(Me)-LSSTNVGSNT-Apr-NH2] ({C20 diacid-γGlu}-RCNTATCATQRLAEFLHRSSNNF[Sar]A[NMeI]LSSTNVGSNT[Pro(4R-NH2)]-NH2; disulfide 2-7) | FND | FND | FND |  |  | 0.087 nM | 0.16 nM
CC[C@H](C)[C@@H](C(=O)N[C@@H](CC(C)C)C(=O)N[C@@H](CO)C(=O)N[C@@H](CO)C(=O)N[C@H](C(=O)N[C@@H](CCC(=O)O)C(=O)N[C@H](C(=O)NCC(=O)N[C@@H](CO)C(=O)N[C@@H](CCC(=O)O)C(=O)N[C@H](C(=O)N1CCC[C@H]1C(N)=O)[C@@H](C)O)C(C)C)[C@@H](C)O)N(C)C(=O)[C@H](C)NC(=O)CN(C)C(=O)[C@H](Cc1ccccc1)NC(=O)[C@H](CO)NC(=O)[C@H](CO)NC(=O)[C@H](CCCNC(=N)N)NC(=O)[C@H](Cc1c[nH]cn1)NC(=O)[C@H](CC(C)C)NC(=O)[C@H](Cc1ccccc1)NC(=O)[C@H](CCC(=O)O)NC(=O)[C@H](C)NC(=O)[C@H](CC(C)C)NC(=O)[C@H](CCCNC(=N)N)NC(=O)[C@H](CCC(=O)O)NC(=O)[C@@H](NC(=O)[C@H](C)NC(=O)[C@@H]1CSSC[C@H](NC(=O)[C@H](CCCNC(=N)N)NC(=O)CC[C@H](NC(=O)CCCCCCCCCCCCCCCCCCC(=O)O)C(=O)O)C(=O)NCC(=O)N[C@@H]([C@@H](C)O)C(=O)N[C@@H](C)C(=O)N[C@@H]([C@@H](C)O)C(=O)N1)[C@@H](C)O [Compound 162, [19CD]-isoGlu-RC()GTATC()ATERLAEFLHRSSF-Gly(Me)-A-Ile(Me)-LSSTEVGSETP-NH2] ({C20 diacid-γGlu}-RCGTATCATERLAEFLHRSSF[Sar]A[NMeI]LSSTEVGSETP-NH2; disulfide 2-7) | FND | FND | FND | 0.14 nM | 0.049 nM |  | 
